# Data: patent US20130310384A1, “Sulfonamide-Containing Compounds” (THE BRIGHAM AND WOMEN'S HOSPITAL, INC., priority 2010, published 2013)
row,SMILES,melting point
1,"C[C@H](O)[C@H](CO)N(Cc1ccc(C#N)cc1F)S(=O)(=O)c1ccc(Cl)cc1 [Example 131, 4-Chloro-N-(4-cyano-2-fluorobenzyl)-N-((2S,3S)-1,3-dihydroxybutan-2-yl)-benzenesulfonamide]",112 to 114 °C
2,"COC(=O)c1ccc(CN(C(C)C)S(=O)(=O)c2ccc(F)cc2)cc1 [Example 45, Methyl 4-((4-fluoro-N-isopropylphenylsulfonamido)methyl)benzoate]",118 to 120 °C
3,COC(=O)c1ccc(CN(C(CF)CF)S(=O)(=O)c2ccc(F)cc2)cc1 [Example 41],103 to 105 °C
4,"COC(=O)c1ccc(CN([C@@H](CO)Cc2ccccc2)S(=O)(=O)c2ccc(Cl)cc2)cc1 [Example 94, (R)-Methyl 4-((4-chloro-N-(1-hydroxy-3-phenylpropan-2-yl)phenylsulfonamido)-methyl)benzoate]",128 to 130 °C
5,"CC(C)N(Cc1ccc(Cl)c(Cl)c1)S(=O)(=O)c1cc2ccccc2s1 [Example 48, N-(3,4-Dichlorobenzyl)-N-isopropylbenzo[b]thiophene-2-sulfonamide]",133 to 135 °C
6,"COC(=O)c1ccc(CN([C@@H](CO)c2ccccc2)S(=O)(=O)c2ccc(Cl)cc2)cc1 [Example 7, (R)-Methyl 4-((4-chloro-N-(2-hydroxy-1-phenylethyl)phenylsulfonamido)methyl)benzoate]",104 to 106 °C
7,"CCC(c1ccc(F)cc1)N(Cc1ccc(C(=O)OC)cc1)S(=O)(=O)c1ccc(Cl)cc1 (centres unmarked) [Example 30, Methyl 4-((4-chloro-N-(1-(4-fluorophenyl)propyl)phenylsulfonamido)methyl)benzoate]",95 to 97 °C
8,"CC[C@@H](c1ccccc1)N(Cc1ccc(C(=O)NC[C@H](C)O)cc1)S(=O)(=O)c1ccc(Cl)cc1 [Example 80, 4-((4-Chloro-N—((S)-1-phenylpropyl)phenylsulfonamido)methyl)-N-((S)-2-hydroxypropyl)benzamide]",78 to 80 °C
9,"CCC(CC)N(Cc1ccc(C(=O)OC)cn1)S(=O)(=O)c1ccc(F)cc1 [Example 34, Methyl 6-((4-fluoro-N-(pentan-3-yl)phenylsulfonamido)methyl)nicotinate]",117 to 119 °C
10,"COC(=O)c1ccc(CN([C@@H](C)c2ccccc2)S(=O)(=O)c2ccc(Cl)cc2)cc1 [Example 12, (S)-Methyl 4-((4-chloro-N-(1-phenylethyl)phenylsulfonamido)methyl)benzoate]",105 to 106 °C
11,"CCC(CC)N(Cc1ccc(S(C)(=O)=O)cc1)S(=O)(=O)c1ccc(Cl)cc1 [Example 31, 4-Chloro-N-(4-(methylsulfonyl)benzyl)-N-(pentan-3-yl)benzenesulfonamide]",166 to 168 °C
12,"CC[C@@H](c1ccccc1)N(Cc1ccc(C(=O)OC)cc1)S(=O)(=O)c1ccc(F)cc1 [Example 21, (S)-Methyl 4-((4-fluoro-N-(1-phenylpropyl)phenylsulfonamido)methyl)benzoate]",107 to 109 °C
13,"COC(=O)c1cc(CN([C@@H](CO)c2ccccc2)S(=O)(=O)c2ccc(Cl)cc2)ccc1OC [Example 133, (R)-Methyl 5-((4-chloro-N-(2-hydroxy-1-phenylethyl)phenylsulfonamido)methyl)-2-methoxybenzoate]",60 to 62 °C
14,"COC(=O)c1ccc(CN(C(C)C)S(=O)(=O)c2ccc(Cl)cc2)cc1 [Example 44, Methyl 4-((4-chloro-N-isopropylphenylsulfonamido)methyl)benzoate]",110 to 112 °C
15,"CC[C@H](c1ccc(C(F)(F)F)cc1)N(Cc1ccc(C(=O)O)cc1)S(=O)(=O)c1ccc(Cl)cc1 [Example 126, (R)-4-((4-Chloro-N-(1-(4-(trifluoromethyl)phenyl)propyl)phenylsulfonamido)methyl)benzoic acid]",105 to 107 °C
16,"CC[C@@H](c1ccccc1)N(Cc1ccc(C(=O)OC)cc1)S(=O)(=O)c1ccc(Cl)c(Cl)c1 [Example 114, (S)-Methyl 4-((3,4-dichloro-N-(1-phenylpropyl)phenylsulfonamido)methyl)benzoate]",98 to 99 °C
17,"CCC(CC)N(Cc1ccc(C(=O)OC)cc1)S(=O)(=O)c1ccc(C)cc1 [Example 35, Methyl 4-((4-methyl-N-(pentan-3-yl)phenylsulfonamido)methyl)benzoate]",106 to 108 °C
18,"CCC(CC)N(Cc1ccc(C(=O)OC)cc1)S(=O)(=O)c1ccc(F)cc1 [Example 32, Methyl 4-((4-fluoro-N-(pentan-3-yl)phenylsulfonamido)methyl)benzoate]",78 to 80 °C
19,"CCC(CC)N(Cc1ccc(C#N)cc1)S(=O)(=O)c1ccc(Cl)cc1 [Example 33, 4-Chloro-N-(4-cyanobenzyl)-N-(pentan-3-yl)benzenesulfonamide]",123 to 125 °C

row,SMILES,melting point
1,"CCC(c1ccccn1)N(Cc1ccc(C(=O)OC)cc1)S(=O)(=O)c1ccc(F)cc1 (centres unmarked) [Example 26, Methyl 4-((4-fluoro-N-(1-(pyridin-2-yl)propyl)phenylsulfonamido)methyl)benzoate]",82 to 84 °C
2,"O=C(O)c1ccc(CN([C@H](CO)c2ccccc2)S(=O)(=O)c2ccc(Cl)cc2)cc1 (hydrate or solvate) [Example 95, (S)-4-((4-Chloro-N-(2-hydroxy-1-phenylethyl)phenylsulfonamido)methyl)benzoic acid]",86 to 88 °C
3,"C[C@@H](c1ccc(Cl)cc1)N(Cc1ccc(C(=O)O)cc1)S(=O)(=O)c1ccc(Cl)cc1 [Example 141, (S)-4-((4-Chloro-N-(1-(4-chlorophenyl)ethyl)phenylsulfonamido)methyl)benzoic acid]",163 to 165 °C
4,"CC(C)N(Cc1ccc(Cl)c(Cl)c1)S(=O)(=O)c1ccc(Cl)s1 [Example 43, 5-Chloro-N-(3,4-dichlorobenzyl)-N-isopropylthiophene-2-sulfonamide]",66 to 67 °C
5,"CC[C@@H](c1ccccc1)N(Cc1ccc(S(C)(=O)=O)cc1)S(=O)(=O)c1ccc(Cl)cc1 [Example 2, (S)-4-Chloro-N-(4-(methylsulfonyl)benzyl)-N-(1phenylpropyl)benzenesulfonamide]",61 to 63 °C
6,"COC(=O)c1ccc(CN(C(CO)CO)S(=O)(=O)c2ccc(Cl)s2)cc1 [Example 42, Methyl 4-((5-chloro-N-(1,3-dihydroxypropan-2-yl)thiophene-2-sulfonamido)methyl)benzoate]",134 to 135 °C
7,"CCC(CC)N(Cc1ccc(C#N)cc1F)S(=O)(=O)c1ccc(F)cc1 [Example 36, N-(4-Cyano-2-fluorobenzyl)-4-fluoro-N-(pentan-3-yl)benzenesulfonamide]",102 to 104 °C
8,"O=C(O)c1ccc(CN(C(CO)CO)S(=O)(=O)c2ccc(Cl)s2)cc1 [Example 53, 4-((5-Chloro-N-(1,3-dihydroxypropan-2-yl)thiophene-2-sulfonamido)methyl)benzoic acid]",163 to 165 °C
9,"CCC(c1ccc(C(F)(F)F)cc1)N(Cc1ccc(C(=O)O)cc1)S(=O)(=O)c1ccc(Cl)cc1 (centres unmarked) [Example 54, 4-((4-Chloro-N-(1-(4-(trifluoromethyl)phenyl)propyl)phenylsulfonamido)methyl)benzoic acid]",108 to 110 °C
10,"CC[C@H](c1ccc(C(F)(F)F)cc1)N(Cc1ccc(C(=O)OC)cc1)S(=O)(=O)c1ccc(Cl)cc1 [Example 123, (R)-Methyl 4-((4-chloro-N-(1-(4-(trifluoromethyl)phenyl)propyl)phenylsulfonamido)methyl)benzoate]",120 to 121 °C
11,"COC(=O)c1ccc(CN([C@@H](C)c2ccc(Cl)cc2)S(=O)(=O)c2ccc(Cl)cc2)cc1 [Example 141, (S)-Methyl 4-((4-chloro-N-(1-(4-chlorophenyl)ethyl)phenylsulfonamido)methyl)benzoate]",67 to 69 °C
12,"CC[C@@H](c1ccccc1)N(Cc1ccc(C(=O)O)cc1OC)S(=O)(=O)c1ccc(Cl)cc1 [Example 23, (S)-4-((4-Chloro-N-(1-phenylpropyl)phenylsulfonamido)methyl)-3-methoxybenzoic acid]",176 to 178 °C
13,"CC[C@@H](c1ccccc1)N(Cc1ccc(C(=O)O)c(F)c1F)S(=O)(=O)c1ccc(Cl)cc1 [Example 127, (S)-4-((4-Chloro-N-(1-phenylpropyl)phenylsulfonamido)methyl)-2,3-difluorobenzoic acid]",127 to 129 °C
14,"CC[C@@H](c1ccccc1)N(Cc1ccc(C(=O)N2CCC[C@@H]2CO)cc1)S(=O)(=O)c1ccc(Cl)cc1 [Example 104, 4-Chloro-N-(4-((R)-2-(hydroxymethyl)pyrrolidine-1-carbonyl)benzyl)-N-((S)-1-phenylpropyl)benzenesulfonamide]",120 to 121 °C
15,"CC[C@@H](c1ccccc1)N(Cc1ccc(C(=O)NCC(=O)O)cc1)S(=O)(=O)c1ccc(Cl)cc1 [Example 64, (S)-2-(4-((4-Chloro-N-(1-phenylpropyl)phenylsulfonamido)methyl)benzamido)acetic acid]",136 to 139 °C
16,"CC[C@@H](c1ccc(C(F)(F)F)cc1)N(Cc1ccc(C(=O)O)cc1)S(=O)(=O)c1ccc(Cl)cc1 [Example 125, (S)-4-((4-Chloro-N-(1-(4-(trifluoromethyl)phenyl)propyl)phenylsulfonamido)methyl)benzoic acid]",101 to 103 °C
17,"CC[C@@H](c1ccccc1)N(Cc1ccc(C(=O)OC)c(F)c1F)S(=O)(=O)c1ccc(Cl)cc1 [Example 124, (S)-Methyl 4-((4-chloro-N-(1-phenylpropyl)phenylsulfonamido)methyl)-2,3-difluorobenzoate]",87 to 89 °C
18,"CC[C@@H](c1ccccc1)N(Cc1ccc(C(=O)O)cc1F)S(=O)(=O)c1ccc(Cl)cc1 [Example 52, (S)-4-((4-Chloro-N-(1-phenylpropyl)phenylsulfonamido)methyl)-3-fluorobenzoic acid]",118 to 120 °C
19,"CC[C@@H](c1ccccc1)N(Cc1ccc(C(=O)OC)cc1)S(=O)(=O)c1ccc(C(F)(F)F)cc1 [Example 18, (S)-Methyl 4-((N-(1-phenylpropyl)-4-(trifluoromethyl)phenylsulfonamido)methyl)benzoate]",70 to 72 °C
